Here are results for 2 molecules from patent US20230312744A1, “Modulatory Substance of Tumor Immune Microenvironment, and Preventive, Diagnostic and/or Therapeutic Utilization of the Same” (The University Of Tokyo, priority 2020, published 2023).

One assay has as its system IL-2ss-TCTP tumors. The experiment in a line: Proliferation assay of subcutaneously transplanted IL-2ss-TCTP SL4 tumor in C57BL/6 mice. Type of assay: in vivo, mouse. The following applies: 50 mg/kg orally, FIG. 11(i). As for the experimental part:
In FIG. 11(a), PECs (2×10^5 cells) or SL4 cells (1×10^5 cells) were stimulated with recombinant TCTP for 2 hours. Thereafter, Cxcl1 mRNA was quantified by qRT-PCR (n=3). In FIG. 11(b), the Cxcl1 mRNA of TCTP WO SL4 cells and TCTP KO SL4 cells was quantified by RT-qPCR. n=3. In FIG. 11(c), SL4 cells (2×10^5 cells) were subcutaneously transplanted into C57BL/6 mice (n=3). On Day 21 after the transplantation, single cell suspensions were prepared from tumors. Thereafter, various immune cells (PMN-MDSCs, M-MDSCs, TAMS, DCs, T cells, B cells, and NK cells) were separated, and the Cxcl2 mRNA of individual cells was then quantified by qRT-PCR. In FIG. 11(d), PECs (2×10^5 cells) were stimulated with recombinant IL-la for 2 hours. Thereafter, Cxcl1 mRNA was quantified by qRT-PCR (n=3). […] HEK293T cells transiently expressing TLR2-YFP and Flag-TCTP were subjected to immunoprecipitation with an anti-GFP antibody, and thereafter, were analyzed with an anti-Flag antibody (upper view), and TLR2 and TCTP in the whole cell lysate were detected (lower view). […] The tumor volume was measured over time. In FIG. 11(i), IL-2ss-TCTP SL4 cells (2×10^5 cells) were subcutaneously transplanted into C57BL/6 mice, and the tumor volume was then measured over time. […]

The target of another assay is T1, mouse TCTP (mouse, UniProt P63028 1-172).
T1 construct: also called TCTP in the whole cell lysate of TCTP WT SL4 cells; TCTP released from dead SL4 cells
T1 sequence (looked up): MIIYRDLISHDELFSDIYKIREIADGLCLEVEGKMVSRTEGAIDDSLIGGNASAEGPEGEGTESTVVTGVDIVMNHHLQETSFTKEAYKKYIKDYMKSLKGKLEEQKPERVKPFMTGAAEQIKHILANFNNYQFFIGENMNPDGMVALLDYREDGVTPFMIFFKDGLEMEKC
Description: immunoblotting of whole cell lysates of TCTP WT and TCTP KO SL4 cells. In general terms: A western blot detects proteins with antibodies after separation by electrophoresis.

Regarding `COc1cccc(C=O)c1O` [O -vanillin, O-vanillin], the “proliferation of IL-2ss-TCTP tumors” value in the assay with IL-2ss-TCTP tumors is given as “suppressed”.

B1: 55F3 antibody (antibody, V domains shown)
VH: DVQLQESGPGLVKPSQSLSLTCTATGYSIASDYAWNWIRQFPGNKLEWMGYINYSGSTGYNPSLKSRISITRDTSKNQFFLQLNSVTTEDTATYYCARFEAGYWGQGTTLTVSS
VL: DIKMTQSPSSMSASLGERVTITCKASQDINRYLSWFQQKPGKSPKTLIYRANRLVDGVPSRFSGSGSGQDYSLTISSLEYGDMGIYYCLQYNEFPLTFGAGTKLELKR
notes: also called 55F3E5; 55F3E5 (55F3) monoclonal antibody
As for B1, the binding result with mouse TCTP is recorded as “binds”.
